The values that follow come from US9833497B2, “Human originated EGF domain proteins and use of the same” (CHENGDU SOURCEBIO LIMITED-LIABILITY COMPANY, priority 2013, dated 2017).

Holding throughout (assay type): cell-based
One test has as its system E. coli DH5α. Kind of test: Antibacterial activity: MIC and growth curve against E. coli DH5α in 96-well plate. Particulars: minimal inhibitory concentration against E. coli DH5α; 96-well plate, 5×10^5 CFU/mL, 37° C., judged after 8 h. Summed up: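 Log-phase DH5α (OD600 about 0.5, 37° C, 185 rpm in LB) was pelleted, resuspended in fresh LB and seeded at 5×10^5 CFU/mL with recombinant protein at 50, 25 and 12.5 μg/mL (two-fold series), in triplicate. Plates were shaken at 175 rpm, 37° C, and OD600 was read every 30 min. MIC was the lowest concentration with no growth.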

The next test concerns E. coli BL21. Description: MIC against Gram-negative bacteria: E. coli BL21. Summed up: (§1)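 Purified recombinant human EGF domain proteins are tested by broth dilution in LB against a 5×10^5 CFU/mL inoculum, with two-fold serial dilutions run in triplicate. Plates are incubated at 37° C with shaking, and the MIC is read as the lowest protein concentration without growth.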
The test system of another test is Pseudomonas aeruginosa. Description: MIC against Gram-negative bacteria: Pseudomonas aeruginosa. Summed up: as §1
A further test has as its system Klebsiella pneumonia. Kind of test: MIC against Gram-negative bacteria: Klebsiella pneumonia. A digest of the protocol:
as §1

For the next test, the system named is Enterobacter cloacae. Kind of test: MIC against Gram-negative bacteria: Enterobacter cloacae. Summed up:
as §1

In the next test the test system is Aeromonas hydrophila. Description: MIC against Gram-negative bacteria: Aeromonas hydrophila. A digest of the protocol: as §1
The subject of a further test is Citrobacter diversus. Description: MIC against Gram-negative bacteria: Citrobacter diversus. Summed up: as §1
The subject of the next test is Moraxella catarrhalis. Kind of test: MIC against Gram-negative bacteria: Moraxella catarrhalis. A digest of the protocol:
as §1

The test system of a further test is Proteus mirabilis. Kind of test: MIC against Gram-negative bacteria: Proteus mirabilis. Summed up:
as §1

The next test relates to Proteus vulgaris. Description: MIC against Gram-negative bacteria: Proteus vulgaris. Summed up: as §1
The next test concerns Serratia marcescens. Description: MIC against Gram-negative bacteria: Serratia marcescens. A digest of the protocol:
as §1

[1] abbreviates: E. coli BL21, 96-well plate, 5×10^5 CFU/mL, 37° C., 10 h.
Where [2] appears, read: Pseudomonas aeruginosa, 96-well plate, 5×10^5 CFU/mL, 37° C., 10 h.
The mark [3] stands for this setting: Klebsiella pneumonia, 96-well plate, 5×10^5 CFU/mL, 37° C., 10 h.
[4] abbreviates: Enterobacter cloacae, 96-well plate, 5×10^5 CFU/mL, 37° C., 10 h.
Setting [5] is: Aeromonas hydrophila, 96-well plate, 5×10^5 CFU/mL, 37° C., 10 h.
Where [6] appears, read: Citrobacter diversus, 96-well plate, 5×10^5 CFU/mL, 37° C., 10 h.
Where [7] appears, read: Moraxella catarrhalis, 96-well plate, 5×10^5 CFU/mL, 37° C., 10 h.
The mark [8] stands for this setting: Proteus mirabilis, 96-well plate, 5×10^5 CFU/mL, 37° C., 10 h.
Where [9] appears, read: Proteus vulgaris, 96-well plate, 5×10^5 CFU/mL, 37° C., 10 h.
Setting [10] is: Serratia marcescens, 96-well plate, 5×10^5 CFU/mL, 37° C., 10 h.
Where [11] appears, read: 96-well plate, 5×10^5 CFU/mL, 37° C., 10 h.
Setting [12] is: 10 h cultivation at 37° C., 5×10^5 CFU/mL, two-fold serial dilution.

With “PRT1017 (NPDNCVSHQCQNGGTCQDGLDTYTCLCPETWTGWDCS; listed as Homo sapiens)”, the MIC against E. coli DH5α came out at 50 µg/mL; against E. coli BL21 (E. coli BL21, 10 h cultivation at 37° C.), 12.5 µg/mL; against Pseudomonas aeruginosa (P. aeruginosa, 10 h cultivation at 37° C.) it was 12.5 µg/mL; in the test on Klebsiella pneumonia (K. pneumonia, 10 h cultivation at 37° C.), 12.5 µg/mL; in the test with Enterobacter cloacae (E. cloacae, 10 h cultivation at 37° C.), 12.5 µg/mL; in the test on Aeromonas hydrophila (A. hydrophila, 10 h cultivation at 37° C.), 12.5 µg/mL. Also, the MIC came out at 12.5 µg/mL in the test on Citrobacter diversus (C. diversus, 10 h cultivation at 37° C.); 12.5 µg/mL in the test with Moraxella catarrhalis (M. catarrhalis, 10 h cultivation at 37° C.); 50 µg/mL against Proteus mirabilis (P. mirabilis, 10 h cultivation at 37° C.); 12.5 µg/mL against Proteus vulgaris (P. vulgaris, 10 h cultivation at 37° C.); 50 µg/mL in the test on Serratia marcescens (S. marcescens, 10 h cultivation at 37° C.).

With “PRT1231 (IGPSCLKFCSGRGQCTRHGCKCDPGFSGPACE; listed as Homo sapiens)”, in the test on E. coli DH5α, the MIC worked out at 12.5 µg/mL. Moreover, the “MIC against E. coli BL21” value in the test with E. coli BL21 (setting [1]) was found to be 25 µg/mL. Moreover, in the test with Pseudomonas aeruginosa (setting [2]), the “MIC against P. aeruginosa” value was determined as 50 µg/mL. For the same substance, the “MIC against K. pneumonia” value against Klebsiella pneumonia (setting [3]) amounted to 12.5 µg/mL. Further, the “MIC against E. cloacae” value against Enterobacter cloacae (setting [4]) was 50 µg/mL. The “MIC against A. hydrophila” value against Aeromonas hydrophila (setting [5]) is 100 µg/mL. Also, the “MIC against C. diversus” value in the test on Citrobacter diversus (setting [6]) amounted to 50 µg/mL. Moreover, the “MIC against M. catarrhalis” value with Moraxella catarrhalis (setting [7]) came out at 12.5 µg/mL. Also, in the test with Proteus mirabilis (setting [8]), the “MIC against P. mirabilis” value came to 50 µg/mL. The “MIC against P. vulgaris” value in the test on Proteus vulgaris (setting [9]) stood at 12.5 µg/mL. Also, the “MIC against S. marcescens” value with Serratia marcescens (setting [10]) came to 25 µg/mL.

In turn, “PRT76 (EVDLCYSRPCGPHGRCRSREGGYTCLCRDGYTGEHCE; listed as Homo sapiens)” had an MIC in the test on E. coli DH5α of 25 µg/mL. For the same substance, the “MIC (μg/mL) E. coli BL21” value against E. coli BL21 (setting [1]) amounted to 12.5 µg/mL. Moreover, the “MIC (μg/mL) P. aeruginosa” value in the test on Pseudomonas aeruginosa (setting [2]) turned out to be 25 µg/mL. Besides, the “MIC (μg/mL) K. pneumonia” value with Klebsiella pneumonia (setting [3]) came to 12.5 µg/mL. Further, the “MIC (μg/mL) E. cloacae” value against Enterobacter cloacae (setting [4]) turned out to be 25 µg/mL. In addition, in the test on Aeromonas hydrophila (setting [5]), the “MIC (μg/mL) A. hydrophila” value was found to be 12.5 µg/mL. In addition, the “MIC (μg/mL) C. diversus” value in the test on Citrobacter diversus (setting [6]) was found to be 25 µg/mL. In addition, the “MIC (μg/mL) M. catarrhalis” value with Moraxella catarrhalis (setting [7]) was determined as 100 µg/mL. The “MIC (μg/mL) P. mirabilis” value in the test with Proteus mirabilis (setting [8]) was 12.5 µg/mL. Also, the “MIC (μg/mL) P. vulgaris” value in the test on Proteus vulgaris (setting [9]) turned out to be 12.5 µg/mL. Moreover, in the test on Serratia marcescens (setting [10]), the “MIC (μg/mL) S. marcescens” value was 50 µg/mL.

In the case of “PRT708 (QYYVCHHYCVNSESCTIGDDGSVECVCPTRYEGPKCE; listed as Homo sapiens)”, in the test with E. coli DH5α, the MIC is 50 µg/mL. In the test on E. coli BL21 (setting [11]), the “MIC E. coli BL21” value came out at 25 µg/mL. Besides, the “MIC P. aeruginosa” value with Pseudomonas aeruginosa (setting [11]) came out at 50 µg/mL. In the test with Klebsiella pneumonia (setting [11]), the “MIC K. pneumonia” value came out at 25 µg/mL. In addition, the “MIC E. cloacae” value in the test on Enterobacter cloacae (setting [11]) was 50 µg/mL. Also, the “MIC A. hydrophila” value with Aeromonas hydrophila (setting [11]) came to 12.5 µg/mL. Moreover, the “MIC C. diversus” value against Citrobacter diversus (setting [11]) came out at 50 µg/mL. Moreover, the “MIC M. catarrhalis” value with Moraxella catarrhalis (setting [11]) was determined as 12.5 µg/mL. In the test with Proteus mirabilis (setting [11]), the “MIC P. mirabilis” value turned out to be 50 µg/mL. Moreover, the “MIC P. vulgaris” value in the test on Proteus vulgaris (setting [11]) was 12.5 µg/mL. Moreover, in the test on Serratia marcescens (setting [11]), the “MIC S. marcescens” value stood at 50 µg/mL.

Turning to “PRT1439 (EEDECAKPDRGGCEQRCLNTLGSYQCACEPGYELGPDRRSCE; listed as Homo sapiens)”, in the test with E. coli DH5α, the MIC was 50 µg/mL. Moreover, the “MIC against E. coli BL21” value against E. coli BL21 (E. coli BL21, 5×10^5 CFU/mL, 10 h cultivation at 37° C.) is 12.5 µg/mL. In the test on Pseudomonas aeruginosa (Pseudomonas aeruginosa, 5×10^5 CFU/mL, 10 h cultivation at 37° C.), the “MIC against P. aeruginosa” value was determined as 50 µg/mL. Also, the “MIC against K. pneumonia” value against Klebsiella pneumonia (Klebsiella pneumonia, 5×10^5 CFU/mL, 10 h cultivation at 37° C.) was 12.5 µg/mL. The “MIC against E. cloacae” value against Enterobacter cloacae (Enterobacter cloacae, 5×10^5 CFU/mL, 10 h cultivation at 37° C.) was 50 µg/mL. Moreover, in the test on Aeromonas hydrophila (Aeromonas hydrophila, 5×10^5 CFU/mL, 10 h cultivation at 37° C.), the “MIC against A. hydrophila” value stood at 12.5 µg/mL. Moreover, the “MIC against C. diversus” value against Citrobacter diversus (Citrobacter diversus, 5×10^5 CFU/mL, 10 h cultivation at 37° C.) amounted to 50 µg/mL. Further, in the test with Moraxella catarrhalis (Moraxella catarrhalis, 5×10^5 CFU/mL, 10 h cultivation at 37° C.), the “MIC against M. catarrhalis” value amounted to 12.5 µg/mL. Besides, the “MIC against P. mirabilis” value against Proteus mirabilis (Proteus mirabilis, 5×10^5 CFU/mL, 10 h cultivation at 37° C.) was 50 µg/mL. In the test on Proteus vulgaris (Proteus vulgaris, 5×10^5 CFU/mL, 10 h cultivation at 37° C.), the “MIC against P. vulgaris” value came out at 12.5 µg/mL. Also, the “MIC against S. marcescens” value with Serratia marcescens (Serratia marcescens, 5×10^5 CFU/mL, 10 h cultivation at 37° C.) turned out to be 50 µg/mL.

In the test with E. coli DH5α, “PRT1184 (NPNDCLPDPCHSRGRCYDLVNDFYCACDDGWKGKTCH; listed as Homo sapiens)” had an MIC of 50 µg/mL. In addition, in the test with E. coli BL21 (setting [12]), the “MIC E. coli BL21” value was 25 µg/mL. In addition, in the test on Pseudomonas aeruginosa (setting [12]), the “MIC P. aeruginosa” value was 12.5 µg/mL. The “MIC K. pneumonia” value against Klebsiella pneumonia (setting [12]) turned out to be 25 µg/mL. Further, the “MIC E. cloacae” value against Enterobacter cloacae (setting [12]) worked out at 50 µg/mL. In addition, the “MIC A. hydrophila” value against Aeromonas hydrophila (setting [12]) was determined as 12.5 µg/mL. The “MIC C. diversus” value in the test with Citrobacter diversus (setting [12]) is 25 µg/mL. Besides, the “MIC M. catarrhalis” value in the test with Moraxella catarrhalis (setting [12]) came out at 50 µg/mL. Also, in the test with Proteus mirabilis (setting [12]), the “MIC P. mirabilis” value turned out to be 25 µg/mL. For the same substance, the “MIC P. vulgaris” value with Proteus vulgaris (setting [12]) came to 12.5 µg/mL. Further, the “MIC S. marcescens” value in the test on Serratia marcescens (setting [12]) stood at 25 µg/mL.
